Measurements taken from patent US4788206A, “Pentadieneamides” (Hoffmann-La Roche Inc., priority 1987, dated 1988).

What was measured:
[1] = biological target: T1, PAF Binding, dog platelets (Canis lupus familiaris, UniProt A0A8I3NSH0); assay: PAF Binding Assay (inhibition of 3H-PAF binding to washed dog platelets); settings: dog platelets, 3H-PAF, 10 minutes at room temperature; read-out: Inhib of PAF Binding IC50
T1 construct: Washed platelets were prepared by resuspending the platelet pellet once with PBS containing 1 mM EDTA; from tissue; host or cells: washed platelets from dog blood
T1 sequence (A0A8I3NSH0 1-343): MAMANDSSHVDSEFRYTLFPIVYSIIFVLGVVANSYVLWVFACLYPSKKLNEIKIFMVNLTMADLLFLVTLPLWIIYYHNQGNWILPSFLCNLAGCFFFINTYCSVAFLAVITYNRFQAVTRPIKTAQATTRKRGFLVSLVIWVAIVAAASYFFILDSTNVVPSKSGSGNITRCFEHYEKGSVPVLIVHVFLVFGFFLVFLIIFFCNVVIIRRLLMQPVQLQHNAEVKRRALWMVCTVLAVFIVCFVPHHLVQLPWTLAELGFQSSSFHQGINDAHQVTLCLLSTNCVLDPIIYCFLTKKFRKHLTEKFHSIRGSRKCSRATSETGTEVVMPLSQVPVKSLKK
Description: The binding assay was done in 400 μl polyethylene microcentrifuge tubes (Beckman) containing 50 μl of an oil mixture of 2 parts Siliconol AR200 (Serva): 1 part Silicone Fluid (Arthur H. Thomas). Buffer, standards, or analogs (150 μl total volume) were added to the tubes. Radiolabelled ^3 H-PAF (50 μl) was then added to the tubes. The reaction was started by the addition of 50 μl of dog platelets (2×10^7 platelets). The tubes were capped, inverted several times to mix, and incubated for 10 minutes at room temperature. The platelets were separated from the incubation mixture by centrifuging 1 minute in a Beckman Microfuge B centrifuge. The tip of the microfuge tube was cut off, and the platelets were washed out of the tip with 200 μl of 50% methanol (Burdick and Jackson). Aquasol (NEN, 10 ml) was added and the radioactivity in the samples was determined using an LS 8100 Beckman liquid scintillation counter linked to a Techtran tape recorder. Data was processed through an in-house computer system. Alternatively, radioactivity was determined using a Searle Mark III liquid scintillation counter linked to a Iso-Data microprocessor.
(b) Preparation of Platelets
Blood was collected from anesthesized or unanesthesized dogs into 50 ml plastic centrifuge tubes containing 3.8% sodium citrate as the anticoagulant (1 volume of citrate/9 volumes of blood). The red cells were removed by centrifugation for 15 minutes at 600 rpm (100-125 g) at room temperature. An aliquot of the supernatant platelet rich plasma (PRP) was saved for cell counting and the remainder was acidified to PH 6.5 with 0.15M citric acid. The platelet pellet was obtained after a 10 minute centrifugation at 2000 rpm (1000 g) at room temperature. Washed platelets were prepared by resuspending the platelet pellet once with PBS containing 1 mM EDTA, centrifuging as noted, and then resuspending the platelets in 0.1% BSA-PBS. An aliquot of the washed platelets was counted. Platelets used for binding assays were diluted to 2×10^7 platelets/assay tube (4×10^8 platelets/ml). Platelet counting was done using a Royco Cell-Crit 921.

[2] = tested on: PAF-Induced Bronchoconstriction; assay: PAF Induced Bronchoconstriction Assay; assay type: in vivo, guinea pig; settings: for Percent Inhib. of PAF-Induced Bronchoconstriction, mg/Kg i.v.: i.v. (dose not given), 1 minute pretreatment, PAF 1.0 μg/kg i.v.; for inhibition in vivo at 50 mg/kg: Cavia porcellus, po, 2-hour pretreatment, read-out: Percent Inhib. of PAF-Induced Bronchoconstriction, 50 mg/Kg p.o.
Description: PAF Induced Bronchoconstriction Assay
Male animals (Hartlet Strain 400-500 g) were anesthetized with urethane (2 g/kg. i.p.). Each animals' trachea was cannulated and the guinea pigs were repirated using a Harvard small animal rodent respirator (3.0 cc stroke volume, 40 breaths per min.). Tracheal pressure was recorded from a cannula inserted in the trachea and connected to a Statham Pressure Transducer.
The jugular vein was cannulated for administering compounds. Spontaneous breathing was arrested with succinylcholine (1.2 mg/kg. i.v.) administered 2 minutes prior to intravenous injection of platelet activating factor (PAF).
For, the intravenous testing, the guinea pig is given a 5-minute pretreatment with propranolol at a dose of 0.1 mg/kg intravenously. The test compound is administered with a 1 minute pretreatment prior to intravenous challenge with PAF. The animal is than challenged with a 1.0 μg/kg intravenous dose of PAF and the change is tracheal pressure is measured.
For the oral testing, the procedure includes a 2-hour pretreatment period with the test compound administered through an oral gavage tube. Propranolol or succinylcholine and PAF are administered intravenously, and the change in tracheal pressure measured.
The change is tracheal pressure is determined by subtracting the steady state baseline achieved after administration of succinylcholine from the peak bronchoconstriction seen after challenge with PAF. The mean is calculated for each test compound and compared to the mean of the control animals to give the percent inhibition of bronchoconstriction. The standard error is calcuated as the standard error of the mean.

IC50 [1] [nM]	Structure (SMILES)	Percent Inhib. of PAF-Induced Bronchoconstriction, mg/Kg i.v. [2] [%]	inhibition in vivo at 50 mg/kg ([2]; 50 mg/Kg p.o.) [%]	Percent Inhib. of PAF-Induced Bronchoconstriction, 50 mg/Kg p.o. (6 hr) ([2]; 50 mg/Kg p.o., (6 hr)) [%]
30	COc1ccc(/C=C/C=C/C(=O)N[C@H](C)CCCc2cccnc2)cc1 [[R-(E,E)]-5-(4-methoxyphenyl)-N-[1-methyl-4-(3-pyridinyl)butyl]-2,4-pentadienamide]	17 ± 13		
50	COc1ccc(/C(=C/C=C/C(=O)NCCCCc2cccnc2)c2cccnc2)cc1 [(2E,4Z)-5-(4-methoxyphenyl)-5-(3-pyridinyl)-N-[4-(3-pyridinyl)butyl]-2,4-pentadienamide]	78 ± 10	39 ± 8	
> 1000	CCCCC(CCCc1cccnc1)NC(=O)/C=C/C=C(c1ccc(OC)cc1)c1ccc(OC)cc1 (racemic) [[R,S-(E)]-N-[1-butyl-4-(3-pyridinyl)butyl]-5,5-bis(4-methoxyphenyl)-2,4-pentadienamide]	42 ± 7		
40	CCCCC/C(=C\C=C\C(=O)N[C@H](C)CCCc1cccnc1)c1ccc(F)cc1 [[R-(E,E)]-5-(4-fluorophenyl)-N-[1-methyl-4-(3-pyridinyl)butyl]-2,4-decadienamide]	95 ± 1		
30	CC/C(=C\C=C\C(=O)N[C@H](C)CCCc1cccnc1)c1ccc(OC)cc1 [[R-(E,E)]-5-(4-methoxyphenyl)-N-[1-methyl-4-(3-pyridinyl)butyl]-2,4-heptadienamide]	72 ± 13	84 ± 2	
50	CCC/C(=C\C=C\C(=O)N[C@H](C)CCCc1cccnc1)c1ccc(OC)cc1 [[R-(E,E)]-5-(4-methoxyphenyl)-N-[1-methyl-4-(3-pyridinyl)butyl]-2,4-octadienamide]	86 ± 7	9 ± 13	
30	COc1ccc(C(=C/C=C/C(=O)NC(C)CCCc2cccnc2C)c2ccc(OC)cc2)cc1 (racemic) [[R,S-(E)]-5,5-bis(4-methoxyphenyl)-N-[1-methyl-4-(2-methyl-3-pyridinyl)butyl]-2,4-pentadienamide]	47 ± 10		
500	COc1ccc(C(=C/C=C/C(=O)NC(CCCc2cccnc2)CCCc2cccnc2)c2ccc(OC)cc2)cc1 [(E)-5,5-bis-(4-methoxyphenyl)-N-[1-[3-(3-pyridinyl)propyl]-4-(3-pyridinyl)-butyl]-2,4-pentadienamide]	50 ± 15		
30	COc1ccc(/C(=C/C=C/C(=O)N[C@H](C)CCCc2cccnc2)C(C)C)cc1 [[R-(E,E)]-5-(4-methoxyphenyl)-6-methyl-N-[1-methyl-4-(3-pyridinyl)butyl]-2,4-heptadienamide]	38 ± 11		
55	COc1ccc(/C(=C/C=C/C(=O)NCCCCc2cccnc2)c2ccccc2OC)cc1 [(2E,4Z)-5-(2-methoxyphenyl)-5-(4-methoxyphenyl)-N-[4-(3-pyridinyl)butyl]-2,4-pentadienamide]	36 ± 6		
14	CCCC/C(=C\C=C\C(=O)N[C@H](C)CCCc1cccnc1)c1ccc(OC)cc1 [[R-(E,E)]-5-(4-methoxyphenyl)-N-[1-methyl-4-(3-pyridinyl)butyl]-2,4-nonadienamide]	99 ± 1	98 ± 1	
> 1000	COc1ccc(C(=C/C=C/C(=O)NC(CCCc2cccnc2)C2CCCCC2)c2ccc(OC)cc2)cc1 (racemic) [[R,S-(E)]-N-[1-cyclohexyl-4-(3-pyridinyl)butyl]-5,5-bis(4-methoxyphenyl)-2,4-pentadienamide]	11 ± 15		
250	COc1ccc(C(=C/C=C/C(=O)Nc2ccc(Cc3cccnc3)cc2)c2ccc(OC)cc2)cc1 [(E)-5,5-bis(4-methoxyphenyl)-N-[4-(3pyridinylmethyl)phenyl]-2,4-pentadienamide]	3 ± 7		
60	COc1ccc(C(=C/C=C/C(=O)NC(CCCc2cccnc2)C2CC2)c2ccc(OC)cc2)cc1 (racemic) [[R,S-(E)]-N-[1-cyclopropyl-4-(3-pyridinyl)butyl]-5,5-bis-(4-methoxyphenyl)-2,4-pentadienamide]	98 ± 1	99 ± 0.3	
400	CC[C@@H](CCCc1cccnc1)NC(=O)/C=C/C=C(c1ccc(OC)cc1)c1ccc(OC)cc1 [[S-(E)]-N-[1-ethyl-4-(3-pyridinyl)butyl]-5,5-bis (4-methoxyphenyl)-2,4-pentadienamide]	44 ± 8		
30	CCCCC/C(=C\C=C\C(=O)N[C@H](C)CCCc1cccnc1)c1cccc(F)c1 [[R-(E,E)]-5-(3-fluorophenyl)-N-[1-methyl-4-(3-pyridinyl)butyl]-2,4-decadienamide]	93 ± 0.9		
55	COc1ccc(C(=C/C=C/C(=O)NCCCCc2cccnc2)c2ccc(OC)c(OC)c2)cc1OC [(E)-5,5-bis(3,4-Dimethoxyphenyl)-N-[4-(3-pyridinyl)butyl]-2,4-pentadienamide]	78 ± 6	71 ± 2	
40	COc1ccccc1C(=C/C=C/C(=O)NCCCCc1cccnc1)c1ccccc1OC [(E)-5,5-bis (2-methoxyphenyl)-N-[4-(3-pyridinyl)butyl]-2,4-pentadienamide]	40 ± 2		
5	CCCCC/C(=C\C=C\C(=O)NC(C)CCCc1cccnc1C)c1ccc(OC)cc1 (racemic) [[R,S-(E,E)]-5-(4-methoxyphenyl)-N-[1-methyl-4-(2-methyl-3-pyridinyl)butyl]-2,4-decadienamide]	77 ± 5		
50	COc1ccc(/C(=C/C=C/C(=O)N[C@H](C)CCCc2cccnc2)C2CC2)cc1 [[R-(E,E)]-5-cyclopropyl-5-(4-methoxyphenyl)-N-[1-methyl-4-(3-pyridinyl)butyl]-2,4-pentadienamide]	35 ± 5		
> 1000	COc1ccc(C(=C/C=C/C(=O)NC(CCCc2cccnc2)C2CCCC2)c2ccc(OC)cc2)cc1 (racemic) [[R,S-(E)]-N-[1-cyclopentyl-4-(3-pyridinyl)butyl]-5,5-bis-(4-methoxyphenyl)-2,4-pentadienamide]	19 ± 14		
20	COc1ccc(/C(=C/C=C/C(=O)N[C@H](C)CCCc2cccnc2)C2CCCCC2)cc1 [[R-(E,E)]-5-cyclohexyl-5-(4-methoxyphenyl)-N-[1-methyl-4-(3-pyridinyl)butyl]-2,4-pentadienamide]	73 ± 17	97 ± 1	12 ± 10
